What was measured:
Rattus norvegicus [1] = assay: Anti-inflammatory activity in Sprague-Dawley rat model of carrageenan-induced paw edema assessed as inhibition of paw edema volume at 150 umol/kg, po dosed 1 hr before carrageenan challenge and measured 3 hrs post carrageenan challenge; format: functional
[2] = biological target: T1, Prostaglandin G/H synthase 1 (Ovis aries) (UniProt P05979); assay: Inhibition of ovine COX1 assessed as reduction in PGF2alpha formation at 10 uM incubated for 18 hrs by enzyme immunoassay
T1 sequence (whole entry): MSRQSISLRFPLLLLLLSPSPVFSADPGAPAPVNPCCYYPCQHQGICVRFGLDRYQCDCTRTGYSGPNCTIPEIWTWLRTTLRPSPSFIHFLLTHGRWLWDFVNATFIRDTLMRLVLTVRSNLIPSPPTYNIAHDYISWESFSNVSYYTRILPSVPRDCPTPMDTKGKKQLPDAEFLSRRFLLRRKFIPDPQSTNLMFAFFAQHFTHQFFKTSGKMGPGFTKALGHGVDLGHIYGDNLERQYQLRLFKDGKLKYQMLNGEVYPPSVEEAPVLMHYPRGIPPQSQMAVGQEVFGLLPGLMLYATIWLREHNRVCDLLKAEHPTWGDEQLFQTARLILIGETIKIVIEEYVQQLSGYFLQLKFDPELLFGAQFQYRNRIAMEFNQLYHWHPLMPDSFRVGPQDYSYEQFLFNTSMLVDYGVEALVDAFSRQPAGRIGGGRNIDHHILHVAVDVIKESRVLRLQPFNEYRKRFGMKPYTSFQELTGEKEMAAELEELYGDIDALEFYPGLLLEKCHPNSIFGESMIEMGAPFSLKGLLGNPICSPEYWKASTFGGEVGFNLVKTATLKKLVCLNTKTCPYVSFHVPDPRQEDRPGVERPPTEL

Rattus norvegicus [3] = assay: Anti-inflammatory activity in Sprague-Dawley rat model of carrageenan-induced paw edema assessed as inhibition of paw edema volume at 150 umol/kg, po dosed 1 hr before carrageenan challenge and measured 5 hrs post carrageenan challenge; format: functional
Rattus norvegicus [4] = assay: Anti-inflammatory activity in Sprague-Dawley rat model of carrageenan-induced paw edema assessed as inhibition of paw edema volume at 150 umol/kg, po dosed 1 hr before carrageenan challenge and measured 1 hr post carrageenan challenge; format: functional
[5] = biological target: T2, Prostaglandin G/H synthase 1 (Ovis aries, UniProt P05979); assay: Inhibition of ovine COX1 assessed as reduction in PGF2alpha formation incubated for 18 hrs by enzyme immunoassay
T2 sequence (P05979 whole entry): T1 sequence (whole entry)

inhibition [2] [%] | IC50 [5] [µM] | Structure (SMILES) | inhibition in vivo at 150 µmol/kg (Rattus norvegicus [1]) [%] | inhibition in vivo at 150 µmol/kg (Rattus norvegicus [3]) [%] | inhibition in vivo at 150 µmol/kg (Rattus norvegicus [4]) [%]
28.3 | > 30 | Cc1nn(-c2ccc(F)cc2)c2c1c(=O)oc1ccccc12 | 39.8 | 55.6 | 24.6
21.3 | – | Cc1ccc(C)c(-n2nc(C)c3c(=O)oc4ccccc4c32)c1 | – | – | –
27.3 | – | COc1ccc2c(c1)oc(=O)c1c(C)nn(-c3ccc(Br)cc3)c12 | – | – | –
43.7 | > 30 | Cc1nn(-c2ccc(Cl)cc2)c2c1c(=O)oc1ccccc12 | 35.2 | 49.4 | 21.3
43.8 | – | Cc1nn(-c2ccccc2)c2c1c(=O)oc1ccc(Cl)cc12 | – | – | –
34.3 | > 30 | Cc1nn(-c2ccc(C(F)(F)F)cc2)c2c1c(=O)oc1ccccc12 | 40.4 | 59.9 | 27.6
34.8 | – | COc1ccc2c(c1)oc(=O)c1c(C)nn(-c3ccc(Cl)cc3)c12 | – | – | –
34.6 | – | Cc1nn(-c2ccccc2C(F)(F)F)c2c1c(=O)oc1ccccc12 | – | – | –
39.2 | – | Cc1ccc(C)c(-n2nc(C)c3c(=O)oc4ccc(Cl)cc4c32)c1 | – | – | –
– | – | Cc1ccc(-c2cc(C(F)(F)F)nn2-c2ccc(S(N)(=O)=O)cc2)cc1 [CELECOXIB] | 38.8 | 51.4 | 24.4
38.2 | – | COc1ccc2c(c1)oc(=O)c1c(C)nn(-c3ccccc3C(F)(F)F)c12 | – | – | –
33.2 | > 30 | Cc1nn(-c2ccc(C(F)(F)F)cc2)c2c1c(=O)oc1ccc(Cl)cc12 | 36.1 | 57.8 | 23.3
33.2 | > 30 | COc1ccc2c(c1)oc(=O)c1c(C)nn(-c3ccc(C(F)(F)F)cc3)c12 | 32.2 | 43.7 | 21.7
48.1 | > 30 | Cc1nn(-c2ccccc2)c2c1c(=O)oc1ccccc12 | 30.1 | 38.2 | 19.3
30.5 | – | Cc1nn(-c2ccc(Cl)cc2Cl)c2c1c(=O)oc1ccccc12 | – | – | –
54.2 | – | Cc1nn(-c2ccccc2)c2c1c(=O)oc1ccc(Br)cc12 | – | – | –
39.5 | – | COc1ccc2c(c1)oc(=O)c1c(C)nn(-c3cc(C)ccc3C)c12 | – | – | –
34.8 | – | COc1ccc2c(c1)oc(=O)c1c(C)nn(-c3ccc(F)cc3)c12 | – | – | –
43.2 | – | COc1ccc2c(c1)oc(=O)c1c(C)nn(-c3ccccc3)c12 | – | – | –
47.5 | > 30 | Cc1nn(-c2ccc(Br)cc2)c2c1c(=O)oc1ccccc12 | 27.8 | 37 | 14.2

From ChEMBL document CHEMBL3352727, “Synthesis, biological evaluation and docking analysis of 3-methyl-1-phenylchromeno[4,3-c]pyrazol-4(1H)-ones as potential cyclooxygenase-2 (COX-2) inhibitors” (Bioorg Med Chem Lett, 2014)
